Measured values as given in US5599808A, “Aqueous indolocarbazole solutions” (Cephalon, Inc., priority 1995, dated 1997).
In brackets after ≈: the same amount, converted by molar mass.

Legend:
[1] = tested on: protein kinase; conditions: Berg et al. J. Biol. Chem. 267:13-16 (1992); cited from earlier work
[2] = cited from earlier work
[3] = Concentration of dissolved indolocarbazole obtained in aqueous solutions (HPLC); conditions: organic solvent or mixture
Protocol: In general, a solution of the concentrate can be prepared by combining a dispersant such as polyvinylpyrrolidone C-30 and a selected organic solvent such as propylene glycol into a beaker. The mixture is continuously stirred until completely dissolved. Solid PVP or other solution components may take 1-2 hours to dissolve completely at room temperature.
An amount of an indolocarbazole, for example, staurosporine, K-252a, or any one of indolocarbazole A, B, or C (Table 1) can each be individually weighed and added to a small aliquot of the aqueous solution, resulting in a 10 mg/ml solution after the indolocarbazole completely dissolves. Alternatively, a mixture of indolocarbazoles may be combined, weighed, and added to a small aliquot of the aqueous solution resulting in a 10 mg/ml solution after the indolocarbazole completely dissolves. An indolocarbazole solution can be stirred or shaken vigorously overnight. Any undissolved indolocarbazole is removed by standard centrifugation or filtration techniques. The concentration of solubilized indolocarbazole can be determined by reversed phase HPLC using a UV detector (290 nm).
The following HPLC conditions are used to determine the concentration of an indolocarbazole:
HPLC Column: Zorbax Rx C-18 4.6×250 mm, 5 micron particle size
Prior to injection of an indolocarbazole solution, there is allowed a 10 minute equilibration time.
Fifty g of PEG-400 were added to 50 ml of water and the mixture vigorously stirred until completely dissolved. One mg of either K-252a, staurosporine or the indolocarbazoles B or C (see Table 1) were added individually to a 100 μl aliquot of the PEG-400 solution and the resulting mixture was shaken overnight. The solution was clarified by centrifugation at 1000 rpm for 10 minutes. The supernatant was saved and any residue discarded. Ten μl of the supernatant was removed, diluted with DMSO (100:1) and the concentration of dissolved K-252a determined by HPLC.
Same as example 1 except that PEG-600 was used instead of PEG-400.
Same as example 1 except that PEG-1000 was used instead of PEG-400.
Same as example 1 except that 48 ml of water was used and 2 g of benzyl alcohol was added to the PEG-400 solution.
Same as example 2 except that 48 ml of water was used and 2 g of benzyl alcohol was added to the PEG-600 solution.
Same as example 3 except that 48 ml of water was used and 2 g of benzyl alcohol was added to the PEG-1000 solution.
2.5 g of benzyl alcohol was added to 47.5 g of PEG-400 and, in a separate container, 2.5 g of Pluronic F68 was added to 47.5 ml of water. Each solution was stirred until completely dissolved, then each solution was combined and stirred until homogeneous. One mg of K-252a was added to 100 μl of the solution and the resulting mixture was shaken overnight. The solution was clarified by centrifugation at 1000 rpm for 10 minutes. Ten (10) μl of supernatant was removed, diluted with DMSO (100:1), and the concentration of dissolved K-252a determined by HPLC.
Same as example 7 except that Pluronic™ L61 was used instead of Pluronic™ F68.
Same as example 7 except that Pluronic™ L64 was used instead of Pluronic™ F68.
Same as example 7 except that Tween™ 20 was used instead of Pluronic™ F68.
Same as example 7 except that Tween™ 80 was used instead of Pluronic™ F68.
Same as example 7 except that PVP was used instead of Pluronic™ F68 and PEG-300 was used instead of PEG-400.
Same as example 12 except that PEG-400 was used instead of PEG-300 and indolocarbazoles A, B or C were each solubilized individually in addition to K-252a.
Same as example 12 except that PEG-600 was used instead of PEG-300 and indolocarbazoles A, B or C were each solubilized individually in addition to K-252
Same as example 12 except that PEG-1000 was used instead of PEG-300.
Ten (10) g of Triton X-100 was added to 38 ml of water and the mixture was stirred thoroughly.

For COC(=O)C1(O)CC2OC1(C)n1c3ccccc3c3c4c(c5c6ccccc6n2c5c31)C(=O)NC4 (centres unmarked) [Compound K-252a], the “modulation of neurotrophin responses by affecting protein kinase activity” value [1] is given as “modulate neurotrophin responses”, the insolubility in water ([2]; Nakanishi et al.) is given as “insolubility” and the “solubility in non-aqueous, toxic solvents” value ([2]; non-aqueous, toxic solvents) is given as “soluble in non-aqueous, toxic solvents”. The solubility in water ([2]; water) was “insoluble in water”, the solubility thermodynamic ([3]; 50% peg 400, 50% h2o, Concentration Obtained, Example 1: 50% PEG 400, 50% H2O, target 10 mg/ml) was 1390 µg/mL (≈ 2.97 mM) and the solubility thermodynamic ([3]; 50% peg 600, 50% h2o, Concentration Obtained, Example 2: 50% PEG 600, 50% H2O, target 10 mg/ml) was 1920 µg/mL (≈ 4.11 mM). It also gave a solubility thermodynamic ([3]; 50% peg 1000, 50% h2o, Concentration Obtained, Example 3: 50% PEG 1000, 50% H2O, target 10 mg/ml) of 1820 µg/mL (≈ 3.89 mM), a solubility thermodynamic ([3]; peg 300/ba/pvp/h2o, Concentration Obtained, Example 12: 47.5% PEG 300, 2.5% BA, 2.5% PVP, 47.5% H2O, target 10 mg/ml) of 9600 µg/mL (≈ 20.5 mM) and a solubility thermodynamic ([3]; peg 400/ba/h2o, Concentration Obtained, Example 4: 50% PEG 400, 2% BA, 48% H2O, target 10 mg/ml) of 2080 µg/mL (≈ 4.45 mM). The solubility thermodynamic ([3]; peg 400/ba/pluronic f68/h2o, Concentration Obtained, Example 7: 47.5% PEG 400, 2.5% BA, 2.5% Pluronic F68, 47.5% H2O, target 10 mg/ml) was 5500 µg/mL (≈ 11.8 mM), the solubility thermodynamic ([3]; peg 400/ba/pluronic l61/h2o, Concentration Obtained, Example 8: 47.5% PEG 400, 2.5% BA, 2.5% Pluronic L61, 47.5% H2O, target 10 mg/ml) was 3500 µg/mL (≈ 7.49 mM) and the solubility thermodynamic ([3]; peg 400/ba/pluronic l64/h2o, Concentration Obtained, Example 9: 47.5% PEG 400, 2.5% BA, 2.5% Pluronic L64, 47.5% H2O, target 10 mg/ml) was 1800 µg/mL (≈ 3.85 mM). For the same compound, the solubility thermodynamic ([3]; peg 400/ba/pvp/h2o, Concentration Obtained, Example 13: 47.5% PEG 400, 2.5% BA, 2.5% PVP, 47.5% H2O, target 10 mg/ml) was 10000 µg/mL (≈ 21.4 mM), the solubility thermodynamic ([3]; peg 400/ba/tween 20/h2o, Concentration Obtained, Example 10: 47.5% PEG 400, 2.5% BA, 2.5% Tween 20, 47.5% H2O, target 10 mg/ml) was 6000 µg/mL (≈ 12.8 mM) and the solubility thermodynamic ([3]; peg 400/ba/tween 80/h2o, Concentration Obtained, Example 11: 47.5% PEG 400, 2.5% BA, 2.5% Tween 80, 47.5% H2O, target 10 mg/ml) was 3700 µg/mL (≈ 7.91 mM). For the same compound, the solubility thermodynamic ([3]; peg 600/ba/h2o, Concentration Obtained, Example 5: 50% PEG 600, 2% BA, 48% H2O, target 10 mg/ml) was 2720 µg/mL (≈ 5.82 mM), the solubility thermodynamic ([3]; peg 600/ba/pvp/h2o, Concentration Obtained (saturation level), Example 20: 47.5% PEG 600, 2.5% BA, 2.5% PVP, 47.5% H2O, 10 mg added) was 10000 µg/mL (≈ 21.4 mM) and the solubility thermodynamic ([3]; peg 600/ba/pvp/h2o, Concentration Obtained (saturation level), Example 22: 50% PEG 600, 2% BA, 10% PVP, 38% H2O, 10 mg added) was 21200 µg/mL (≈ 45.3 mM). The solubility thermodynamic ([3]; peg 600/ba/pvp/h2o, Concentration Obtained, Example 14: 47.5% PEG 600, 2.5% BA, 2.5% PVP, 47.5% H2O, target 10 mg/ml) was 10000 µg/mL (≈ 21.4 mM), the solubility thermodynamic ([3]; peg 600/ba/pvp/h2o, Concentration Obtained, Example 18: 50% PEG 600, 2% BA, 10% PVP, 38% H2O, target 10 mg/ml) was 10000 µg/mL (≈ 21.4 mM) and the solubility thermodynamic ([3]; peg 600/ba/triton x-100/h2o, Concentration Obtained, Example 16: 50% PEG 600, 2% BA, 10% Triton X-100, 38% H2O, target 10 mg/ml) was 10000 µg/mL (≈ 21.4 mM). For the same compound, the solubility thermodynamic ([3]; peg 600/ba/tween 80/h2o, Concentration Obtained, Example 17: 50% PEG 600, 2% BA, 10% Tween 80, 38% H2O, target 10 mg/ml) was 8830 µg/mL (≈ 18.9 mM), the solubility thermodynamic ([3]; peg 1000/ba/h2o, Concentration Obtained, Example 6: 50% PEG 1000, 2% BA, 48% H2O, target 10 mg/ml) was 1830 µg/mL (≈ 3.91 mM) and the solubility thermodynamic ([3]; peg 1000/ba/pvp/h2o, Concentration Obtained (saturation level), Example 21: 47.5% PEG 1000, 2.5% BA, 2.5% PVP, 47.5% H2O, 10 mg added) was 14100 µg/mL (≈ 30.2 mM). For the same compound, the solubility thermodynamic ([3]; peg 1000/ba/pvp/h2o, Concentration Obtained, Example 15: 47.5% PEG 1000, 2.5% BA, 2.5% PVP, 47.5% H2O, target 10 mg/ml) was 10000 µg/mL (≈ 21.4 mM) and the solubility thermodynamic ([3]; peg 1000/ba/pvp/h2o, Concentration Obtained, Example 19: 40% PEG 1000, 2% BA, 10% PVP, 48% H2O, target 10 mg/ml) was 10000 µg/mL (≈ 21.4 mM).
